Assays:
PAI-1 expression = PAI-1 expression in mink lung epithelial cells (Northern blot); format: cell-based; conditions: 0.25 ρM and 2.5 ρM TGF-β1
Experimental: RNA Analysis—Mink lung epithelial cells were grown overnight in 12-well clustered dishes in DMEM containing 10% fetal calf serum. The medium was then changed to DMEM containing 0.1% fetal calf serum and the cells were incubated with 0.25 and 2.5 ρM TGF-β1 in the presence of various concentrations of peptide β1^25 (41-65) for 2.5 hr. Total cellular RNA was extracted using RNAzol B (Tel-Test Inc.) according to the manufacturer's protocol. RNA was electrophoresed in 1.2% agarose-formaldehyde gel and transferred to Duralon-UV membranes using 10×SSC. The membranes were probed at 42° C. with a random-primed, radiolabeled 1-kb fragment from the Hind III and NeoI digests of PAI-1 cDNA and glyceraldehyde-3-phosphate dehydrogenase (“GAPDH”) cDNA. The blots were washed with 0.1×SSC containing 0.1% SDS at room temperature.

[1] = tested on: mink lung epithelial cells; assay: Blocking of TGF-β1-induced growth inhibition ([methyl-3H]thymidine incorporation, DNA synthesis); format: cell-based
Experimental: [Methyl-^3H]thymidine Incorporation—Mink lung epithelial cells grown on 24-well clustered dishes were incubated with various concentrations of TGF-β1 in the presence and absence of peptide β1^25 (41-65) or with various concentrations of peptide β1^25 (41-65)-CA, and peptide β1^25 (41-65)-BSA in DMEM containing 0.1% fetal calf serum. After 16 hr at 37° C., the cells were pulsed with 1 μCi/ml of [methyl-^3H]thymidine for 4 hr. The cells were then washed twice with 1 ml of 10% trichloroacetic acid and once with 0.5 ml of ethanol:ether (2:1, v/v). The cells were then dissolved in 0.4 ml of 0.2 N NaOH and counted with a liquid scintillation counter.

[2] = tested on: type I, type II, and type III TGF-β receptors; assay: 125I-TGF-β1-affinity labeling of other cell-surface TGF-β receptor types in mink lung epithelial cells; format: binding; conditions: peptide at 2.3 μM
Experimental: (§1) ^125I-TGF-β1-affinity labeling of cell-surface TGF-β receptors in mink lung epithelial cells. Mink lung epithelial cells grown on 60-mm Petri dishes were incubated with 0.1 nM […] the presence of various concentrations of peptide β1^25 (41-65) or peptide β3^25 (41-65) in binding buffer. After 2.5 hr at 0° C., ^125I-TGF-β1-affinity labeling was carried out in the presence of DSS as described. The ^125I-TGF-β1-affinity-labeled TGF-β receptors were analyzed by 5% SDS-polyacrylamide gel electrophoresis under reducing conditions and autoradiography.

TGF-β receptors = assay: Inhibition of specific binding of 125I-TGF-β1 to TGF-β receptors in mink lung epithelial cells; conditions: peptide at 34 μM
Experimental: Specific binding of ^125I-labeled TGF-β1, TGF-β2, and TGF-β3 (^125I-TGF-β1, ^125I-TGF-β2, and ^125I-TGF-β3) to TGF-β receptors in mink lung epithelial cells. ^125I-TGF-β1, ^125I-TGF-β2, and ^125I-TGF-β3 were prepared by iodination of TGF-β1, TGF-β2, and TGF-β3 with Na^125I as described previously (Ref. 7). The specific radioactivities of ^125I-TGF-β1, ^125I-TGF-β2, and ^125I-TGF-β3 were 1-3×10^5 cpm/ng. Mink lung epithelial cells were grown on 24-well clustered dishes to near confluence in Dulbecco's modified Eagle medium (DMEM) containing 10% fetal calf serum. The epithelial cells were incubated with 0.1 nM ^125I-TGF-β1, ^125I-TGF-β2, or ^125I-TGF-β3 both with and without 100-fold excess of unlabeled TGF-β1, TGF-β2, or TGF-β3 in binding buffer (Ref. 7). After 2.5 hr at 0° C., the cells were washed two times with binding buffer, and the cell-associated radioactivity was determined. […] All experiments were carried out in triplicate cell cultures.

[3] = Observation of deleterious effects in treated animals; format: in vivo, pig, rabbit; conditions: topical, any animal
Experimental: Burn wound model. Four pigs weighing 20-25 kg were anesthetized by intramuscular injection of ketamine (5 mg/kg), strenil® (cazaporonum) (20 mg/kg) and atropine (5 mg/kg). Six uniform burn wounds (110° C., 30 sec) were then made symmetrically on the back of each pig using a modified soldering iron (Ref. 15) with a flat contact area of 20 cm^2. […] After wounding, a thin layer of Intrasite®) gel containing either peptide β1^25 (41-65), buffer or nothing else was applied to the wounds. All wounds were dressed with paraffin gauze. The dressing was changed every two days for the first 10 days and twice a week for the next 30 days. Gel comprising peptide β1^25 (41-65) and control gel were applied and wound measurements were made at each dressing change.
Excision wound model. Four pigs received intramuscular injection of ketamine, strenil® and atropine as described above. Six excision injuries were generated by removing full-thickness sections of skin (3×3 cm) from standardized sites on the back of each animal using a scapel. Three rabbits, were anesthetized by intramuscular injection of ketamine (5 mg/kg). Three excision injuries were produced in each by removing full-thickness sections of skin (0.5×1 cm) from each ear. […]

[4] = tested on: type V TGF-β receptor (TβR-V); assay: 125I-TGF-β1-affinity labeling of cell-surface type V TGF-β receptor in mink lung epithelial cells; format: binding; conditions: peptide at 2.3 μM
Experimental: as §1

ear excision wounds = assay: Rabbit ear excision wound model; format: in vivo; conditions: for scar formation: post-excision day 10
Experimental: Preparation of IntraSite® gel containing TGF-β peptantagonist (peptide TGF-beta antagonist). 1 ml of sterile 6 mM peptide β1^25 (41-65) in phosphate buffered saline or 1 ml of sterile phosphate buffered saline was vigorously mixed with 3 ml of IntraSite® gel using two 10 ml syringes connected with a three-way connector. […] However, 1.5 mM of peptide β1^25 (41-65) was used throughout the experiments described below.
Excision wound model. Four pigs received intramuscular injection of ketamine, strenil® and atropine as described above. Six excision injuries were generated by removing full-thickness sections of skin (3×3 cm) from standardized sites on the back of each animal using a scapel. Three rabbits, were anesthetized by intramuscular injection of ketamine (5 mg/kg). Three excision injuries were produced in each by removing full-thickness sections of skin (0.5×1 cm) from each ear. After wounds, a thin layer of IntraSite® gel containing peptide β1^25 (41-65) was applied to alternating wounds on each animal and IntraSite® gel+buffer was applied to the other half. The excision wounds were then dressed with a paraffin gauze. For pig experiments, the dressing was changed every two days for the first 10 days and twice a week for the next 30 days. For rabbit experiments, the dressing was changed for the first 3 days. Gel containing peptide β1^25 (41-65) or control gel was applied at each dressing change.
Measurement of scar. The volumes of scar tissue were estimated by multiplying their thickness by the size of the scar on post-burn day 41 in pigs and post-excision day 10 in rabbits.

## ANFCLGPCPYIWSLDTQYSKVLALY [peptide β1^25 (41-65)]
PAI-1 expression
  blocking of PAI-1 expression stimulated by TGF-β1: completely blocked
[1]; 0.025 ρM and 0.25 ρM TGF-β1, 18 μM peptide
  blocking of DNA synthesis inhibition induced by TGF-β1: completely blocked
[1]; 0.25 ρM TGF-β1, various concentrations of peptide
  blocking of TGF-β1-induced growth inhibition, dose dependence: concentration-dependent manner
[2]
  inhibition of 125I-TGF-β1-affinity labeling of other TGF-β receptor types: 30-40%
TGF-β receptors
  inhibition of 125I-TGF-β1 binding to TGF-β receptors: completely inhibited
[3]
  deleterious effects: no apparent deleterious effects
[4]
  inhibition of 125I-TGF-β1-affinity labeling of the type V TGF-β receptor: almost completely abolished
Ear excision wounds
  scar formation: attenuated scar formation
Ear excision wounds; post-excision day 10, n=6, estimated
  volume of scar tissue: 0.005±0.01 cm^3
Ear excision wounds; listed as TGF-β-peptantagonist
  scar formation: reduced scarring

Reference: patent US7723473B2, “Peptide antagonists of TGF-beta family members and therapeutic uses thereof” (St. Louis University, priority 1997, dated 2010)
